Source: US10131652B2, “Pyrimidinyloxy benzene derivatives as herbicides” (E. I. DU PONT DE NEMOURS AND COMPANY, priority 2014, dated 2018)

Experiments:
Format in all cases: in vivo
[1] = system: johnsongrass (Sorghum halepense); test: Test D pre-/postemergence plant response; conditions: Postemergence; for Plant response rating, Johnsongrass: scale 0 to 100, 0 no effect, 100 complete control
Summary of the method: (§1)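 Each compound, in non-phytotoxic solvent with surfactant, was sprayed onto soil right after sowing or onto young plants 2 to 18 cm tall. After 13 to 15 days under greenhouse conditions, effects were judged visually against controls on a 0 (no effect) to 100 (complete control) scale.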

[2] = system: large (Lg) crabgrass (Digitaria sanguinalis); test: Test D pre-/postemergence plant response; conditions: Postemergence; for Plant response rating, Crabgrass, Large: scale 0 to 100, 0 no effect, 100 complete control
Summary of the method: as §1

[3] = system: velvetleaf (Abutilon theophrasti); test: Test D pre-/postemergence plant response; conditions: Postemergence
Summary of the method: as §1

[4] = system: oilseed rape (Brassica napus); test: Test D pre-/postemergence plant response; conditions: Postemergence
Summary of the method: as §1

[5] = system: yellow nutsedge (Cyperus esculentus); test: Test D pre-/postemergence plant response; conditions: Postemergence
Summary of the method: as §1

[6] = system: winter wheat (Triticum aestivum); test: Test D pre-/postemergence plant response; conditions: Postemergence
Summary of the method: as §1

soybean (Glycine max) = test: Test D pre-/postemergence plant response; conditions: Postemergence
Summary of the method: as §1

[7] = system: barnyardgrass (Echinochloa crus-galli); test: Test C flooded paddy test plant response; conditions: Flood, 250 g ai/ha; scale of 0 to 100 where 0 is no effect and 100 is complete control; 13 to 15 days
Summary of the method: (§2)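 2-leaf plants; flood 3 cm, cpd into paddy water; greenhouse 13–15 d; visual score vs untreated, 0 = no effect, 100 = complete control; dash = no result.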

[8] = system: small-flower umbrella sedge (Cyperus difformis); test: Test C flooded paddy test plant response; conditions: Flood, 250 g ai/ha; scale of 0 to 100 where 0 is no effect and 100 is complete control; 13 to 15 days
Summary of the method: as §2

rice (Oryza sativa) = test: Test C flooded paddy test plant response; conditions: Flood, 250 g ai/ha; scale of 0 to 100 where 0 is no effect and 100 is complete control; 13 to 15 days
Summary of the method: as §2

[9] = system: ducksalad (Heteranthera limosa); test: Test C flooded paddy test plant response; conditions: Flood, 250 g ai/ha; scale of 0 to 100 where 0 is no effect and 100 is complete control; 13 to 15 days
Summary of the method: as §2

wild oat (Avena fatua) = test: Test D postemergence plant response
Summary of the method: (§3)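 Visual scoring from 0 (no effect) to 100 (complete control), relative to controls, 13–15 days after treatment in the greenhouse. Compounds were applied postemergence at the 1- to 4-leaf stage (2–18 cm) to potted plants in peat-based medium.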

[10] = system: chickweed (common chickweed, Stellaria media); test: Test D postemergence plant response; conditions: for Plant response rating, Chickweed: scale 0 to 100, 0 no effect, 100 complete control
Summary of the method: as §3

kochia (Kochia scoparia) = test: Test D postemergence plant response; conditions: for Plant response rating, Kochia: scale 0 to 100, 0 no effect, 100 complete control
Summary of the method: as §3

[11] = 31 g ai/ha, scale 0 to 100 (0 no effect, 100 complete control)
[12] = 62 g ai/ha, scale 0 to 100, 0 no effect, 100 complete control
[13] = 125 g ai/ha, scale 0 to 100, 0 no effect, 100 complete control

In the case of FCc1cc(-c2ccccc2Oc2ncc(Cl)cn2)on1 [Compound 224], the “Plant response rating (scale 0 to 100), Johnsongrass” value ([1]; 16 g ai/ha) is reported as 5, the “Johnsongrass plant response rating” value [1, 11] is reported as 5 and the “Plant response rating, Johnsongrass” value ([1]; 62 g ai/ha) is reported as 5. The “Plant response rating, Johnsongrass” value ([1]; 125 g ai/ha) was 5, the “Plant response rating (scale 0 to 100), Crabgrass, Large” value ([2]; 16 g ai/ha) was 5 and the “Crabgrass, Large plant response rating” value [2, 11] was 5. The “Plant response rating, Crabgrass, Large” value ([2]; 62 g ai/ha) was 10, the “Plant response rating, Crabgrass, Large” value ([2]; 125 g ai/ha) was 10 and the “Plant response rating (scale 0 to 100), Velvetleaf” value ([3]; 16 g ai/ha) was 10. The “Velvetleaf plant response rating” value [3, 11] was 25, the “Velvetleaf plant response rating” value [3, 12] was 30 and the “Plant response rating, Velvetleaf” value [3, 13] was 60. For the same compound, the “Plant response rating (scale 0 to 100), Oilseed Rape” value ([4]; 16 g ai/ha) was 0, the “Oilseed Rape plant response rating” value [4, 11] was 10 and the “Oilseed Rape plant response rating” value [4, 12] was 50. The “Plant response rating, Oilseed Rape” value [4, 13] was 98, the “Plant response rating (scale 0 to 100), Nutsedge, Yellow” value ([5]; 16 g ai/ha) was 0 and the “Nutsedge, Yellow plant response rating” value [5, 11] was 0. For the same compound, the “Nutsedge, Yellow plant response rating” value [5, 12] was 5, the “Plant response rating, Nutsedge, Yellow” value [5, 13] was 5 and the “Plant response rating (scale 0 to 100), Wheat” value ([6]; 16 g ai/ha) was 0. The “Wheat plant response rating” value [6, 11] was 0, the “Wheat plant response rating” value [6, 12] was 0 and the “Plant response rating, Wheat” value [6, 13] was 15. The “Plant response rating (scale 0 to 100), Soybean” value (soybean (Glycine max); 16 g ai/ha) was 35, the “Soybean plant response rating” value (soybean (Glycine max); [11]) was 40 and the “Soybean plant response rating” value (soybean (Glycine max); [12]) was 65. The “Plant response rating, Soybean” value (soybean (Glycine max); [13]) was 75, the “Barnyardgrass plant response rating” value [7] was 0 and the “Sedge, Umbrella plant response rating” value [8] was 65. The “Rice plant response rating” value (rice (Oryza sativa)) was 0, the “Ducksalad plant response rating” value [9] was 70 and the “Plant response rating (scale 0 to 100), Oat, Wild” value (wild oat (Avena fatua); 16 g ai/ha) was 0. For the same compound, the “Oat, Wild plant response rating” value (wild oat (Avena fatua); [11]) was 0, the “Oat, Wild plant response rating” value (wild oat (Avena fatua); [12]) was 0 and the “Plant response rating, Oat, Wild” value (wild oat (Avena fatua); [13]) was 0. For the same compound, the “Plant response rating (scale 0 to 100), Chickweed” value ([10]; 16 g ai/ha) was 10, the “Chickweed plant response rating” value [10, 11] was 15 and the “Plant response rating, Chickweed” value ([10]; 62 g ai/ha) was 40. The “Plant response rating, Chickweed” value ([10]; 125 g ai/ha) was 80, the “Plant response rating (scale 0 to 100), Kochia” value (kochia (Kochia scoparia); 16 g ai/ha) was 35 and the “Kochia plant response rating” value (kochia (Kochia scoparia); [11]) was 70. For the same compound, the “Plant response rating, Kochia” value (kochia (Kochia scoparia); 62 g ai/ha) was 95 and the “Plant response rating, Kochia” value (kochia (Kochia scoparia); 125 g ai/ha) was 100.
